Laboratory results: US7772246B2 (Pfizer Inc., priority 2007, dated 2010)
pIC50, pKi: −log10 of the molar value.

How the values were obtained:
b-Raf [1] = target: T1, b-Raf (Homo sapiens, UniProt P15056); assay: Raf biochemical assay (in vitro kinase assay, 32-P transfer from ATP to Mek1); conditions: full-length wild type b-Raf, Mek1 substrate; for pKi: 25 μM ATP; for inhibition at 1 µM: @ 1 μM compound, read-out: b-Raf % inhib @ 1 μM
T1 construct: Full-length wild type b-Raf is expressed in recombinant form and purified from bacterial or insect cells; made in house; host or cells: bacterial or insect cells
Method: Compounds of the present invention were evaluated for potency against b-Raf using an in vitro kinase assay. Raf kinase activity is measured in vitro by determining transfer of radiolabeled 32-P phosphate from ATP to the specific Raf substrate Mek1. Full-length wild type b-Raf is expressed in recombinant form and purified from bacterial or insect cells. Recombinant Mek1 is purified from E. coli bacterial cells. In one assay format (designated G1), the full-length wild type Mek1 is used as the b-Raf substrate. In a second assay format (designated G2), the full-length K97R Mek1 mutant is used as the b-Raf substrate.
In vitro kinase assays are performed in solution containing the following; 50 mM Hepes (pH 7.4), 5 nM b-Raf, 0.8 μM Mek1, 10 mM MgCl2, 25 μM ATP, 0.002% (v/v) Tween-20, 5 μg/mL leupeptin, 1.2 mM DTT, 2% (v/v) DMSO, 0.2-1.0 μCi [γ-^32P]ATP per well.
The assays are performed in wells of a 96 well polypropylene round bottom plate, each well containing 43.5 μL assay mix and 1.5 μL inhibitor compound or DMSO vehicle. 15 μL of b-Raf mix is added and the plate is shaken on a plate shaker and preincubated for 10 minutes at ambient temperature. The reaction is started by addition of 15 μL ATP mix and shaking. The reaction is terminated after 40 minutes by addition of 25 μL 0.5 M EDTA (pH 7.4).
60 μL of the stopped reaction is transferred to a well of a 96-well nylon 66 Biodyne A membrane Silent Screen filter plate (Nalge/Nunc: 256081). The wells are filtered and washed five times with 0.85% phosphoric acid. The filter is placed in a tray with about 50 mL 0.85% phosphoric acid and gently rotated for 10 minutes on an orbital shaker. The procedure is repeated once with fresh 0.85% phosphoric acid. Five samples of 0.5 μL of ATP mix are also spotted onto filter paper for calculation of specific activity. The filters are air dried for one hour and sandwiched between cellophane wrap on an Amersham Biosciences Storage Phosphor Screen and developed at least over night. The image is read using a Molecular Dynamics Storm 840 phosphoimager. Volumes of spots are calculated using ImageQuant5.1.
Raf kinase activity is calculated from the specific activity of [32-P] ATP, 32-P incorporation into Mek1, and the concentration of b-Raf.

b-Raf [2] = target: T2, b-Raf (Homo sapiens, UniProt P15056, V600E); assay: Raf cellular assay (phospho-Mek1/2 ELISA in A2058 cells); type: cell-based; conditions: Table 2; human melanoma A2058 cells (b-Raf mutation), Mek1/2 Ser217/221 phosphorylation, 1 hour incubation; read-out: pMEK IC50
T2 construct: endogenous in cells; host or cells: A2058 human melanoma cells
Summary of the method: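 A2058 melanoma cells (B-Raf mutant), seeded overnight in 10% FBS DMEM, were exposed to compounds (11-point 1:3 series, duplicate) for 1 h at 37 °C. Lysates were captured on anti-Mek1-coated plates and Mek1/2 Ser217/221 phosphorylation was read by anti-phospho-Mek1/2 ELISA, HRP/TMB, 450 nm.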

T2 sequence (P15056 whole entry V600E): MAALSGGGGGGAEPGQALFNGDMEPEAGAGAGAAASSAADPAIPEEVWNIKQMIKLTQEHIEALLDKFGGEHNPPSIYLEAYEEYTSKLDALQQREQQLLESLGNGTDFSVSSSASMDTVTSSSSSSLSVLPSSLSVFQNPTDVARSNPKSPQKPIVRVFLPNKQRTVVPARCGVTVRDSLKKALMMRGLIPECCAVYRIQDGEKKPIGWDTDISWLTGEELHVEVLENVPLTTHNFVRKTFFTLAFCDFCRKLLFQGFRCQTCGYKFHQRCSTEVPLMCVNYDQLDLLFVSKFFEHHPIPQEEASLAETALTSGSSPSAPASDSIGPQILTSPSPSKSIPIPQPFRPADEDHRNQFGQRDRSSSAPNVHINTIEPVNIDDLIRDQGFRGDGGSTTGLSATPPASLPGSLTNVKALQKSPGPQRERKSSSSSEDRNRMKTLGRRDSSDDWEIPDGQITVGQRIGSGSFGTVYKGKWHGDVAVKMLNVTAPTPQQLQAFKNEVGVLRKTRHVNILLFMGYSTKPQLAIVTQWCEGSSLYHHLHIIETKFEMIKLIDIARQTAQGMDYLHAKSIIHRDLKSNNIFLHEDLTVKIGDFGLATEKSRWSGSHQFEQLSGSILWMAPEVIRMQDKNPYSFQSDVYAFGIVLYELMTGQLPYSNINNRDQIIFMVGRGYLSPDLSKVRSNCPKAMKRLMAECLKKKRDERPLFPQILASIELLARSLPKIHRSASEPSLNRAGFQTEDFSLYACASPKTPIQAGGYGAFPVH
T1 sequence (P15056 whole entry): as the sequence (P15056 whole entry V600E) above, with E600V counted along it

**Q.** With `C[C@H](O)CNc1nccc(-c2cn(C)nc2-c2cnc3[nH]cc(Cl)c3c2)n1` [Example E-1, (2S)-1-(4-(3-(3-chloro-1H-pyrrolo[2,3-b]pyridin-5-yl)-1-methyl-1H-pyrazol-4-yl)pyrimidin-2-ylamino)propan-2-ol] as the molecule, how does the pKi (b-Raf [1]) read?
**A.** 8.82

**Q.** What about the pIC50 (b-Raf [2]) of the same molecule?
**A.** 6.65

**Q.** With `CC(C)n1cc(-c2ccnc(NCCn3cccn3)n2)c(-c2cnc3[nH]ccc3c2)n1` [Example D-4, 4-[1-isopropyl-3-(1H-pyrrolo[2,3-b]pyridin-5-yl)-1H-pyrazol-4-yl]-N-[2-(1H-pyrazol-1-yl)ethyl]pyrimidin-2-amine] as the molecule, how does the inhibition at 1 µM (b-Raf [1]) read?
**A.** 100%

**Q.** What about the pKi (b-Raf [1]) of the same molecule?
**A.** > 10.00

**Q.** And the pIC50 (b-Raf [2])?
**A.** 6.83

**Q.** What does the source list for `CC(C)n1cc(-c2ccnc(NCc3ccccn3)n2)c(-c2cnc3[nH]ccc3c2)n1` [Example D-3, 4-(1-isopropyl-3-(1H-pyrrolo[2,3-b]pyridin-5-yl)-1H-pyrazol-4-yl)-N-(pyridin-2-ylmethyl)pyrimidin-2-amine]?
**A.** inhibition at 1 µM (b-Raf [1]): 93%; pKi (b-Raf [1]): 8.08; pIC50 (b-Raf [2]): 5.74

**Q.** For `CCn1cc(CNc2nccc(-c3cn(C(C)C)nc3-c3cnc4[nH]ccc4c3)n2)cn1` [Example D-10, N-[(1-ethyl-1H-pyrazol-4-yl)methyl]-4-[1-isopropyl-3-(1H-pyrrolo[2,3-b]pyridin-5-yl)-1H-pyrazol-4-yl]pyrimidin-2-amine], which inhibition at 1 µM (b-Raf [1]) is on record?
**A.** 100%

**Q.** What about the pKi (b-Raf [1]) of the same molecule?
**A.** 8.70

**Q.** What about the pIC50 (b-Raf [2]) of the same molecule?
**A.** 6.03

**Q.** Which inhibition at 1 µM (b-Raf [1]) does the source give for `CC(CO)Nc1nccc(-c2cn(C(C)C)nc2-c2cnc3[nH]ccc3c2)n1` (stereo in doubt) [Example D-9, (2R)-2-({4-[1-isopropyl-3-(1H-pyrrolo[2,3-b]pyridin-5-yl)-1H-pyrazol-4-yl]pyrimidin-2-yl}amino)propan-1-ol] here?
**A.** 100%

**Q.** What about the pKi (b-Raf [1]) of the same molecule?
**A.** 8.80

**Q.** And the pIC50 (b-Raf [2])?
**A.** 6.04

**Q.** How did the pKi (b-Raf [1]) turn out when `CC(C)n1cc(-c2ccnc(NC[C@H](C)O)n2)c(-c2cnc3ccn(C)c3n2)n1` [Example B-10] was run?
**A.** 8.30

**Q.** What about the pIC50 (b-Raf [2]) of the same molecule?
**A.** 5.22

**Q.** `CC(C)n1cc(-c2ccnc(NC[C@H](C)O)n2)c(-c2cnc3[nH]ncc3c2)n1` [Example D-1, (2S)-1-(4-(1-isopropyl-3-(1H-pyrazolo[3,4-b]pyridin-5-yl)-1H-pyrazol-4-yl)pyrimidin-2-ylamino)propan-2-ol] was tested. Which pKi (b-Raf [1]) did it give?
**A.** 8.48

**Q.** And the pIC50 (b-Raf [2])?
**A.** 5.70

**Q.** `Cc1cc2cc(-c3nn(C(C)C)cc3-c3ccnc(NC[C@H](C)O)n3)cnc2[nH]1` [Example B-7, (2S)-1-(4-(1-isopropyl-3-(2-methyl-1H-pyrrolo[2,3-b]pyridin-5-yl)-1H-pyrazol-4-yl)pyrimidin-2-ylamino)propan-2-ol] was tested. Which pKi (b-Raf [1]) did it give?
**A.** 7.99

**Q.** And the pIC50 (b-Raf [2])?
**A.** 5.40

**Q.** How did the pKi (b-Raf [1]) turn out when `Cc1c[nH]c2ncc(-c3nn(C(C)C)cc3-c3ccnc(NC[C@H](C)O)n3)cc12` [Example B-5, (2S)-1-(4-(1-isopropyl-3-(3-methyl-1H-pyrrolo[2,3-b]pyridin-5-yl)-1H-pyrazol-4-yl)pyrimidin-2-ylamino)propan-2-ol] was run?
**A.** 9.70

**Q.** What about the pIC50 (b-Raf [2]) of the same molecule?
**A.** 8.15

**Q.** What does the source list for `Cc1nc2ncc(-c3nn(C(C)C)cc3-c3ccnc(NC[C@H](C)O)n3)cn2c1C` [Example B-9, (2S)-1-(4-(3-(2,3-dimethylimidazo[1,2-a]pyrimidin-6-yl)-1-isopropyl-1H-pyrazol-4-yl)pyrimidin-2-ylamino)propan-2-ol]?
**A.** pKi (b-Raf [1]): 8.70; pIC50 (b-Raf [2]): 5.03

**Q.** Which results are given for `C[C@H](O)CNc1nccc(-c2cn(CC(F)F)nc2-c2cnc3[nH]cc(Cl)c3c2)n1` [Example E-2, (2S)-1-(4-(3-(3-chloro-1H-pyrrolo[2,3-b]pyridin-5-yl)-1-(2,2-difluoroethyl)-1H-pyrazol-4-yl)pyrimidin-2-ylamino)propan-2-ol]?
**A.** inhibition at 1 µM (b-Raf [1]): 100%; pKi (b-Raf [1]): > 10.00; pIC50 (b-Raf [2]): 7.82

**Q.** How did the inhibition at 1 µM (b-Raf [1]) turn out when `CC(C)n1cc(-c2ccnc(NCCF)n2)c(-c2cnc3[nH]ccc3c2)n1` [Example D-5, N-(2-fluoroethyl)-4-[1-isopropyl-3-(1H-pyrrolo[2,3-b]pyridin-5-yl)-1H-pyrazol-4-yl]pyrimidin-2-amine] was run?
**A.** 100%

**Q.** And the pKi (b-Raf [1])?
**A.** 9.30

**Q.** What about the pIC50 (b-Raf [2]) of the same molecule?
**A.** 6.74

**Q.** For `CNc1ccc(-c2nn(C(C)C)cc2-c2ccnc(NC[C@H](C)O)n2)cn1` [Example B-2, (2S)-1-(4-(1-isopropyl-3-(6-(methylamino)pyridin-3-yl)-1H-pyrazol-4-yl)pyrimidin-2-ylamino)propan-2-ol], which inhibition at 1 µM (b-Raf [1]) is on record?
**A.** 97%

**Q.** What about the pKi (b-Raf [1]) of the same molecule?
**A.** 7.92

**Q.** What about the pIC50 (b-Raf [2]) of the same molecule?
**A.** 5.06
